Data published in patent US12351574B2, “Selective ligands for modulation of GIRK channels” (Northeastern University, priority 2018, dated 2025).

Target: T1, GIRK1/4(V-I) (Homo sapiens, UniProt P48544+P48549, V92I)
T1 construct: expressed in transfected cells; host or cells: Xenopus laevis oocytes (cRNA injection)
T1 sequence (P48549 1-501): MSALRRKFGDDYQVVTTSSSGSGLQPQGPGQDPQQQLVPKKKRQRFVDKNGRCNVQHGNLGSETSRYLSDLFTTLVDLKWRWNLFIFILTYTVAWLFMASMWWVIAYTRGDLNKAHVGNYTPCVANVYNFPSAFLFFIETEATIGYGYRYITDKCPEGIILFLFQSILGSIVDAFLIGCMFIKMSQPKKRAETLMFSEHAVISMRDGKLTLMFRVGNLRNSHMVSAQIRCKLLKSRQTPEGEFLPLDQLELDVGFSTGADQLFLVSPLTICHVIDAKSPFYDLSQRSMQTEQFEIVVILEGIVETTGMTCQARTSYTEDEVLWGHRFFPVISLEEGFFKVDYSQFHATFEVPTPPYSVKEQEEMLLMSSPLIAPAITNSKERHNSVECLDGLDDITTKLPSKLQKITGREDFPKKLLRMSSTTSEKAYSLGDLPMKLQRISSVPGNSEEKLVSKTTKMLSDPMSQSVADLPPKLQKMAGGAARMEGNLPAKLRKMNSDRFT
T1 sequence (P48544 1-419 V92I): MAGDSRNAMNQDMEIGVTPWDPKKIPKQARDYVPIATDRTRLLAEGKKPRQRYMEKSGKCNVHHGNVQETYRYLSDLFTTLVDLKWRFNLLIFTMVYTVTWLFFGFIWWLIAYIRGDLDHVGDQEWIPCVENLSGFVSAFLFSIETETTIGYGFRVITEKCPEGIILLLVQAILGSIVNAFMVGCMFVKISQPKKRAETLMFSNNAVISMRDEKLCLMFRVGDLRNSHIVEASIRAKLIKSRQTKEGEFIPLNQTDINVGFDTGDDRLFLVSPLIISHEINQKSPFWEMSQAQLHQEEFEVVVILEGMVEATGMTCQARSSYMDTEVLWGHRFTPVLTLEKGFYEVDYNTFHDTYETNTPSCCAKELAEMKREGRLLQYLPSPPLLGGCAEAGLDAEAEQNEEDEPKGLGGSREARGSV
Experiment: TEVC in Xenopus oocytes, single mutant GIRK1/4(V-I)
Format: cell-based
Conditions: GIRK1/4(V-I) single mutant
From the text: Molecular biology: For Xenopus oocyte expression, human GIRK1 and human GIRK4 cDNAs were subcloned into pGEMHE. For mammalian expression, human GIRK1 and human GIRK4 cDNAs were subcloned into pcDNA3 and pcDNA3.1/V5-His B, respectively (Invitrogen). Mouse GIRK2 cDNA was subcloned in the dual-function vector, pXoom. Point mutations were introduced using a standard Pfu-based mutagenesis technique according to the QuikChange protocol (Agilent). Mutations were verified by sequencing.
Electrophysiology of oocytes: Whole-oocyte currents were measured by conventional two-electrode voltage clamp (TEVC) with a GeneClamp 500 amplifier (Axon Instruments). Agarose cushion microelectrodes were filled with 1.5% (w/v) agarose in 3 M KCl and were used with resistances between 0.1 and 1.5 megaohms. […] Barium-sensitive basal currents from both groups, 1) Vehicle, 2) single concentration at 10 μM and 3) multiple concentrations of ML297 or GAT compounds in the presence of HK solution, were assessed at −80 mV using TEVC. Barium-sensitive currents were normalized to average basal current in the vehicle solutions. The HK solution contained the following: 96 mM KCl, 1 mM NaCl, 1 mM MgCl2, 5 mM KOH/HEPES, pH 7.4. The barium solution consisted of HK+10 mM BaCl2. Five to ten oocytes from the same batch (same frog) were recorded for each group, and the experiments were repeated in at least four batches. Data acquisition and analysis were carried out using pClamp9 (Molecular Devices) and OriginPro (Microcal) software.
To test these computational predictions, the inventors mutated each or both of the two M1 key wild-type GIRK4 subunit residues to the corresponding GIRK2 residues (GIRK4-V92I, GIRK4-T94V, GIRK4-V92I/T94V or GIRK4-dm) and vice-versa the GIRK2 residues to the corresponding GIRK4 ones (GIRK2-I97V, GIRK2-V99T, GIRK2-I97V/V99T or GIRK2-dm) (FIG. 35). […]

EC50: 530 ± 150 nM
EMAX: 1.29±0.03
Emax (read-out: EMAX, % of the control GIRK1/2): 11%
SMILES: Cc1cc(NC(=O)Nc2ccc(Br)s2)n(-c2ccccc2)n1 [GAT1508, 1-(5-bromothiophen-2-yl)-3-(3-methyl-1-phenyl-1H-pyrazol-5-yl)urea]
